What was measured:
Assay in all cases: Test D pre-/postemergence plant response
Format in all cases: in vivo
[1] = system: barnyardgrass (Echinochloa crus-galli)
Summary of the method: (§1)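 Both preemergence and postemergence treatments were made at the same time, with the compound in a non-phytotoxic, surfactant-containing solvent mixture. Plants grew in a greenhouse for 14–21 days before visual evaluation, scored from 0 (no effect) to 100 (complete control).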

[2] = system: bermudagrass (Cynodon dactylon)
Summary of the method: as §1

[3] = system: black mustard (Brassica nigra)
Summary of the method: as §1

[4] = system: bluegrass (annual bluegrass, Poa annua)
Summary of the method: as §1

[5] = system: chickweed (common chickweed, Stellaria media)
Summary of the method: as §1

[6] = system: dallisgrass (Paspalum dilatatum)
Summary of the method: as §1

[7] = system: dayflower (Virginia (VA) dayflower, Commelina virginica)
Summary of the method: as §1

[8] = system: goosegrass (Eleusine indica)
Summary of the method: as §1

[9] = system: itchgrass (Rottboellia cochinchinensis)
Summary of the method: as §1

[10] = system: large crabgrass (Digitaria sanguinalis)
Summary of the method: as §1

[11] = system: mallow (common mallow, Malva sylvestris)
Summary of the method: as §1

[12] = system: morningglory (pitted morningglory, Ipomoea lacunosa)
Summary of the method: as §1

[13] = system: purslane (common purslane, Portulaca oleracea)
Summary of the method: as §1

[14] = system: quackgrass (Elytrigia repens)
Summary of the method: as §1

[15] = system: ragweed (common ragweed, Ambrosia elatior)
Summary of the method: as §1

[16] = system: sandbur (southern sandbur, Cenchrus echinatus)
Summary of the method: as §1

[17] = system: signalgrass (broadleaf signalgrass, Brachiaria platyphylla)
Summary of the method: as §1

[18] = Postemergence, 31 g ai/ha, scale 0 to 100 (0 no effect, 100 complete control)
[19] = Postemergence, 62 g ai/ha, scale 0 to 100 (0 no effect, 100 complete control)
[20] = Postemergence, 125 g ai/ha, scale 0 to 100 (0 no effect, 100 complete control)
[21] = Postemergence, 16 g ai/ha, scale 0 to 100
[22] = Preemergence, 16 g ai/ha, scale 0 to 100, 0 no effect, 100 complete control
[23] = Preemergence, 31 g ai/ha, scale 0 to 100 (0 no effect, 100 complete control)
[24] = Preemergence, 62 g ai/ha, scale 0 to 100
[25] = Preemergence, 125 g ai/ha, scale 0 to 100
[26] = Postemergence, 31 g ai/ha, scale 0 to 100

COCCn1c(-c2ccccc2)ncc(C(=O)C2=C(O)CCCC2=O)c1=O [Compound 85]
Plant response rating, Barnyardgrass [1, 18]: 50
Plant response rating, Barnyardgrass [1, 19]: 65
Plant response rating, Barnyardgrass [1, 20]: 70
Plant response rating, Barnyardgrass [1, 21]: 30
Plant response rating, Barnyardgrass [1, 22]: 60
Plant response rating, Barnyardgrass [1, 23]: 75
Plant response rating, Barnyardgrass [1, 24]: 95
Plant response rating, Barnyardgrass [1, 25]: 98
Plant response rating, Bermudagrass [2, 18]: 75
Plant response rating, Bermudagrass [2, 19]: 80
Plant response rating, Bermudagrass [2, 20]: 90
Plant response rating, Bermudagrass [2, 21]: 65
Plant response rating, Bermudagrass [2, 22]: 80
Plant response rating, Bermudagrass [2, 23]: 100
Plant response rating, Bermudagrass [2, 24]: 100
Plant response rating, Bermudagrass [2, 25]: 100
Plant response rating, Black Mustard [3, 18]: 60
Plant response rating, Black Mustard [3, 19]: 75
Plant response rating, Black Mustard [3, 20]: 85
Plant response rating, Black Mustard [3, 21]: 35
Plant response rating, Black Mustard [3, 22]: 50
Plant response rating, Black Mustard [3, 23]: 60
Plant response rating, Black Mustard [3, 24]: 98
Plant response rating, Black Mustard [3, 25]: 100
Plant response rating, Bluegrass [4, 18]: 0
Plant response rating, Bluegrass [4, 19]: 5
Plant response rating, Bluegrass [4, 20]: 5
Plant response rating, Bluegrass [4, 21]: 0
Plant response rating, Bluegrass [4, 22]: 0
Plant response rating, Bluegrass [4, 23]: 0
Plant response rating, Bluegrass [4, 24]: 0
Plant response rating, Bluegrass [4, 25]: 15
Plant response rating, Chickweed [5, 26]: 80
Plant response rating, Chickweed [5, 19]: 100
Plant response rating, Chickweed [5, 20]: 100
Plant response rating, Chickweed [5, 22]: 90
Plant response rating, Chickweed [5, 23]: 100
Plant response rating, Chickweed [5, 24]: 100
Plant response rating, Chickweed [5, 25]: 100
Plant response rating, Dallisgrass [6, 26]: 25
Plant response rating, Dallisgrass [6, 19]: 65
Plant response rating, Dallisgrass [6, 20]: 80
Plant response rating, Dallisgrass [6, 21]: 15
Plant response rating, Dallisgrass [6, 22]: 50
Plant response rating, Dallisgrass [6, 23]: 80
Plant response rating, Dallisgrass [6, 24]: 95
Plant response rating, Dallisgrass [6, 25]: 98
Plant response rating, Dayflower, VA [7, 26]: 30
Plant response rating, Dayflower, VA [7, 19]: 60
Plant response rating, Dayflower, VA [7, 20]: 80
Plant response rating, Dayflower, VA [7, 21]: 20
Plant response rating, Dayflower, VA [7, 22]: 5
Plant response rating, Dayflower, VA [7, 23]: 10
Plant response rating, Dayflower, VA [7, 24]: 90
Plant response rating, Dayflower, VA [7, 25]: 95
Plant response rating, Goosegrass [8, 26]: 65
Plant response rating, Goosegrass [8, 19]: 75
Plant response rating, Goosegrass [8, 20]: 75
Plant response rating, Goosegrass [8, 21]: 40
Plant response rating, Goosegrass [8, 22]: 65
Plant response rating, Goosegrass [8, 23]: 75
Plant response rating, Goosegrass [8, 24]: 75
Plant response rating, Goosegrass [8, 25]: 98
Plant response rating, Itchgrass [9, 26]: 35
Plant response rating, Itchgrass [9, 19]: 65
Plant response rating, Itchgrass [9, 20]: 70
Plant response rating, Itchgrass [9, 21]: 30
Plant response rating, Itchgrass [9, 22]: 10
Plant response rating, Itchgrass [9, 23]: 15
Plant response rating, Itchgrass [9, 24]: 35
Plant response rating, Itchgrass [9, 25]: 50
Plant response rating, Crabgrass, Large [10, 26]: 60
Plant response rating, Crabgrass, Large [10, 19]: 75
Plant response rating, Crabgrass, Large [10, 20]: 75
Plant response rating, Crabgrass, Large [10, 21]: 60
Plant response rating, Crabgrass, Large [10, 22]: 95
Plant response rating, Crabgrass, Large [10, 23]: 98
Plant response rating, Crabgrass, Large [10, 24]: 100
Plant response rating, Crabgrass, Large [10, 25]: 100
Plant response rating, Mallow [11, 26]: 65
Plant response rating, Mallow [11, 19]: 70
Plant response rating, Mallow [11, 20]: 75
Plant response rating, Mallow [11, 21]: 60
Plant response rating, Mallow [11, 22]: 80
Plant response rating, Mallow [11, 24]: 95
Plant response rating, Mallow [11, 25]: 98
Plant response rating, Morningglory [12, 26]: 70
Plant response rating, Morningglory [12, 19]: 75
Plant response rating, Morningglory [12, 20]: 90
Plant response rating, Morningglory [12, 21]: 70
Plant response rating, Morningglory [12, 23]: 70
Plant response rating, Morningglory [12, 24]: 90
Plant response rating, Morningglory [12, 25]: 100
Plant response rating, Purslane [13, 26]: 80
Plant response rating, Purslane [13, 19]: 90
Plant response rating, Purslane [13, 20]: 90
Plant response rating, Purslane [13, 21]: 75
Plant response rating, Purslane [13, 22]: 80
Plant response rating, Purslane [13, 23]: 100
Plant response rating, Purslane [13, 24]: 100
Plant response rating, Purslane [13, 25]: 100
Plant response rating, Quackgrass [14, 26]: 0
Plant response rating, Quackgrass [14, 19]: 15
Plant response rating, Quackgrass [14, 20]: 20
Plant response rating, Quackgrass [14, 21]: 0
Plant response rating, Quackgrass [14, 22]: 0
Plant response rating, Quackgrass [14, 23]: 0
Plant response rating, Quackgrass [14, 25]: 20
Plant response rating, Ragweed [15, 26]: 80
Plant response rating, Ragweed [15, 19]: 80
Plant response rating, Ragweed [15, 20]: 100
Plant response rating, Ragweed [15, 21]: 80
Plant response rating, Ragweed [15, 22]: 90
Plant response rating, Ragweed [15, 23]: 95
Plant response rating, Ragweed [15, 25]: 100
Plant response rating, Ragweed ([15]; Preemergence, rate not given, scale 0 to 100, 0 no effect, 100 complete control): 100
Plant response rating, Sandbur [16, 26]: 50
Plant response rating, Sandbur [16, 19]: 65
Plant response rating, Sandbur [16, 20]: 95
Plant response rating, Sandbur [16, 21]: 10
Plant response rating, Sandbur [16, 22]: 5
Plant response rating, Sandbur [16, 23]: 5
Plant response rating, Sandbur [16, 25]: 98
Plant response rating, Signalgrass [17, 26]: 35
Plant response rating, Signalgrass [17, 19]: 60
Plant response rating, Signalgrass [17, 20]: 75
Plant response rating, Signalgrass [17, 21]: 20
Plant response rating, Signalgrass [17, 22]: 5
Plant response rating, Signalgrass [17, 23]: 60
Plant response rating, Signalgrass [17, 25]: 95
